In brackets after ≈: the same amount, converted by molar mass. Where two headings read alike, the source gives them in different places.
Columns and labels:
[1] = tested on: M. kansasii DSM 44162 (ATCC 12478); experiment: Antimycobacterial MIC, microdilution broth / resazurin; assay type: cell-based; settings: Mycobacterium kansasii; resazurin after 96 h; read-out: MIC M. kansasii
[2] = tested on: Staphylococcus aureus subsp. aureus (MRSA) CCM 4750 (ATCC 43300); experiment: Antibacterial microdilution broth (EUCAST); assay type: cell-based; settings: Staphylococcus aureus; 24h incubation; read-out: MIC MRSA
[3] = tested on: Aspergillus fumigatus ATCC 204305; experiment: Antifungal microdilution broth (EUCAST); settings: Aspergillus fumigatus
[4] = tested on: Escherichia coli CCM 3954 (ATCC 25922); experiment: Antibacterial microdilution broth (EUCAST); assay type: cell-based; settings: Escherichia coli; 24h incubation; read-out: MIC EC
[5] = tested on: Pseudomonas aeruginosa CCM 3955 (ATCC 27853); experiment: Antibacterial microdilution broth (EUCAST); assay type: cell-based; settings: Pseudomonas aeruginosa; 72h incubation; read-out: MIC PA
[6] = tested on: Lichtheimia corymbifera CCM 8077; experiment: Antifungal microdilution broth (EUCAST); settings: Lichtheimia corymbifera
[7] = tested on: M. avium DSM 44156 (ATCC 25291); experiment: Antimycobacterial MIC, microdilution broth / resazurin; assay type: cell-based, Mycobacterium avium; settings: Mycobacterium avium; resazurin after 96 h; read-out: MIC M. avium
[8] = tested on: Candida albicans CCM 8320 (ATCC 24433); experiment: Antifungal microdilution broth (EUCAST); settings: Candida albicans; for MIC: 24 h
[9] = tested on: Candida parapsilosis CCM 8260 (ATCC 22019); experiment: Antifungal microdilution broth (EUCAST); settings: Lodderomyces parapsilosis
[10] = tested on: Candida krusei CCM 8271 (ATCC 6258); experiment: Antifungal microdilution broth (EUCAST); settings: Pichia kudriavzevii; for MIC: 24 h
[11] = tested on: Acinetobacter baumannii DSM 30007 (ATCC 19606); experiment: Antibacterial microdilution broth (EUCAST); assay type: cell-based; settings: Acinetobacter baumannii; 24h incubation; read-out: MIC AB
[12] = tested on: Trichophyton interdigitale CCM 8377 (ATCC 9533); experiment: Antifungal microdilution broth (EUCAST); settings: Trichophyton interdigitale
[13] = RP-UHPLC lipophilicity parameter log k’w; assay type: physicochemical; settings: for log k’w: RP-UHPLC, acetonitrile/water, log k extrapolated to 0% acetonitrile; for logkw: experimental lipophilicity parameter
From the text: Lipophilicity and water solubility of the drug candidates are important parameters as they are often directly related to their ADME properties in the organism. Lipophilicity is usually expressed as the logarithm of the partition coefficient in n-octanol/water (log P). Due to its laborious determination, especially in the HTS screening, other experimental methods such as RP-HPLC log k’w or purely computational approaches such as Clog P were proposed and have been established as reasonable estimators of true lipophilicity. To investigate the changes in lipophilicity upon introduction of oxazole in the title compounds, we determined the log k’w of all derivatives and compared respective values among the pairs.
The log k of the synthesized compounds was measured using the same instrument (single measurement per concentration), software, and column as was used in the purity evaluation. Working solutions were diluted as described above for purity determination. The log k parameter was calculated after the UHPLC measurements using isocratic mode with mobile phase acetonitrile (B)/water (A) in a set of concentrations of 40, 45, 50% and 20, 30, 40% B for subtype I and subtype II, respectively.

[14] = tested on: M. aurum DSM 43999 (ATCC 23366); experiment: Antimycobacterial MIC, microdilution broth / resazurin; assay type: cell-based; settings: Mycolicibacterium aurum, read-out: MIC M. aurum
[15] = tested on: Candida tropicalis CCM 8264 (ATCC 750); experiment: Antifungal microdilution broth (EUCAST); settings: Candida tropicalis; for MIC: 24 h
[16] = tested on: Mycobacterium tuberculosis H37Ra ITM-M006710 (ATCC 9431); experiment: Antimycobacterial MIC, microdilution broth / Alamar Blue (resazurin); assay type: cell-based; settings: Mycobacterium tuberculosis, 120 h, Middlebrook 7H9, resazurin after 120 h; read-out: Mtb H37Ra MIC
[17] = tested on: M. smegmatis DSM 43465 (ATCC 607); experiment: Antimycobacterial MIC, microdilution broth / resazurin; assay type: cell-based; settings: Mycolicibacterium smegmatis; resazurin after 48 h; read-out: MIC M. smegmatis
[18] = tested on: Staphylococcus aureus subsp. aureus CCM 4223 (ATCC 29213); experiment: Antibacterial microdilution broth (EUCAST); assay type: cell-based; settings: Staphylococcus aureus; 24h incubation; read-out: MIC SA
[19] = tested on: Enterococcus faecalis CCM 4224 (ATCC 29212); experiment: Antibacterial microdilution broth (EUCAST); assay type: cell-based; settings: Enterococcus faecalis; 24h incubation; read-out: MIC EF
[20] = tested on: Aspergillus flavus CCM 8363; experiment: Antifungal microdilution broth (EUCAST); settings: Aspergillus flavus
[21] = tested on: Staphylococcus epidermidis CCM 4418 (ATCC 12228); experiment: Antibacterial microdilution broth (EUCAST); assay type: cell-based; settings: Staphylococcus epidermidis; 24h incubation; read-out: MIC SE
HepG2 cells = experiment: HepG2 cytotoxicity screening (CellTiter 96); assay type: cell-based, human; settings: Homo sapiens, HepG2, 24 h, 24 h incubation, CellTiter 96; * above highest tested concentration; ** limited by insolubility in medium
[22] = ATCC204305, 24 h, read-out: MIC AF
[23] = CCM8077, 24 h, read-out: MIC LC
[24] = CCM8363, 24 h, read-out: MIC AFla
[25] = ATCC204305, 48 h, read-out: MIC (visual detection)
[26] = CCM8077, 48 h, read-out: MIC (visual detection)
[27] = read-out: MIC (visual detection)
[28] = ATCC22019|CCM8260, 24 h, read-out: MIC (visual detection)
[29] = ATCC9533|CCM8377, 48 h, read-out: MIC (visual detection)
[30] = CCM8363, 48 h, read-out: MIC (visual detection)

Compound	MIC [2]	MIC [3, 22]	MIC [4]	MIC [5]	MIC [6, 23]	MIC ([8]; read-out: MIC CA)	MIC ([9]; 24 h, read-out: MIC CP)	MIC ([10]; read-out: MIC CK)	MIC [11]	MIC ([12]; 72 h, read-out: MIC TI)	log k’w [13]	logkw [13]	MIC ([14]; resazurin after 72 h)	MIC ([15]; read-out: MIC CT)	MIC [16]	MIC [17]	MIC [18]	MIC [19]	MIC [20, 24]	MIC [21]	also measured
O=C(Nc1nccs1)c1cnccn1 [Compound 8a]	> 500 µM	> 500 µM	> 500 µM	> 500 µM	> 500 µM	> 500 µM	> 500 µM	> 500 µM	> 500 µM	> 500 µM	1.222	1.222	125 mg/L (≈ 606 µM)	> 500 µM	62.5 mg/L (≈ 303 µM)	≥ 500 mg/L	> 500 µM	> 500 µM	> 500 µM	500 µM (≈ 103 µg/mL)	MIC [1]: 31.2 mg/L (≈ 152 µM); MIC [7]: 250 mg/L (≈ 1210 µM)
C[C@@H]1[C@H](O)[C@@H](C)/C=C/C=C/C=C/C=C/C=C/C=C/C=C/[C@H](O[C@@H]2O[C@H](C)[C@@H](O)[C@H](N)[C@@H]2O)C[C@@H]2O[C@](O)(C[C@@H](O)C[C@@H](O)[C@H](O)CC[C@@H](O)C[C@@H](O)CC(=O)O[C@H]1C)C[C@H](O)[C@H]2C(=O)O [amphotericin B, reference compound]	–	–	–	–	–	–	–	–	–	–	–	–	–	–	–	–	–	–	–	–	IC90 ([3]; ATCC204305, 48 h, read-out: IC90 (spectrophotometric detection)): 4 mg/L (≈ 4.33 µM); MIC [3, 25]: 4 mg/L; IC90 ([6]; CCM8077, 48 h, read-out: IC90 (spectrophotometric detection)): 1 mg/L (≈ 1.08 µM); MIC [6, 26]: 1 mg/L; MIC [8, 27]: 1 mg/L; IC90 ([8]; ATCC24433|CCM8320, 24 h, read-out: IC90 (spectrophotometric detection)): 1 mg/L (≈ 1.08 µM); IC90 ([9]; ATCC22019|CCM8260, 24 h, read-out: IC90 (spectrophotometric detection)): 0.5 mg/L (≈ 0.541 µM); MIC [9, 28]: 0.5 mg/L; MIC [10, 27]: 1 mg/L; IC90 ([10]; ATCC6258|CCM8271, 24 h, read-out: IC90 (spectrophotometric detection)): 1 mg/L (≈ 1.08 µM); IC90 ([12]; ATCC9533|CCM8377, 48 h, read-out: IC90 (spectrophotometric detection)): 1 mg/L (≈ 1.08 µM); MIC [12, 29]: 1 mg/L; MIC [15, 27]: 1 mg/L; IC90 ([15]; ATCC750|CCM8264, 24 h, read-out: IC90 (spectrophotometric detection)): 1 mg/L (≈ 1.08 µM); IC90 ([20]; CCM8363, 48 h, read-out: IC90 (spectrophotometric detection)): 4 mg/L (≈ 4.33 µM); MIC [20, 30]: 4 mg/L
O=C(Nc1ncco1)c1ccncc1 [Compound 3b]	500 µM (≈ 94.6 µg/mL)	> 500 µM	> 500 µM	> 500 µM	500 µM	500 µM	> 500 µM	500 µM	> 500 µM	500 µM	0.396	0.3955	–	> 500 µM	15.6 mg/L (≈ 82.6 µM)	62.5 mg/L (≈ 330 µM)	250 µM (≈ 47.3 µg/mL)	> 500 µM	> 500 µM	500 µM (≈ 94.6 µg/mL)	MIC ([14]; 72 h): 15.6 mg/L (≈ 82.6 µM); IC50 (HepG2 cells): > 1000 µM; melting point: 175 to 177 °C
O=C(Nc1ncco1)c1ccccn1 [Compound 1b]	250 µM (≈ 47.3 µg/mL)	> 500 µM	> 500 µM	> 500 µM	> 500 µM	> 500 µM	> 500 µM	> 500 µM	> 500 µM	> 500 µM	0.854	0.8542	31.2 mg/L (≈ 165 µM)	> 500 µM	62.5 mg/L (≈ 330 µM)	125 mg/L (≈ 661 µM)	125 µM (≈ 23.6 µg/mL)	> 500 µM	> 500 µM	125 µM (≈ 23.6 µg/mL)	IC50 (HepG2 cells): > 1000 µM; melting point: 129 to 131 °C
C[C@@H](c1ncncc1F)[C@](O)(Cn1cncn1)c1ccc(F)cc1F [voriconazole, reference compound]	–	–	–	–	–	–	–	–	–	–	–	–	–	–	–	–	–	–	–	–	IC50 ([3]; ATCC204305, 48 h, read-out: IC50 (spectrophotometric detection)): 0.25 mg/L (≈ 0.716 µM); MIC [3, 25]: 1 mg/L; IC50 ([6]; CCM8077, 48 h, read-out: IC50 (spectrophotometric detection)): 8 mg/L (≈ 22.9 µM); MIC [6, 26]: > 16 mg/L; MIC [8, 27]: > 16 mg/L; IC50 ([8]; ATCC24433|CCM8320, 24 h, read-out: IC50 (spectrophotometric detection)): 0.03 mg/L (≈ 0.0859 µM); IC50 ([9]; ATCC22019|CCM8260, 24 h, read-out: IC50 (spectrophotometric detection)): 0.03 mg/L (≈ 0.0859 µM); MIC [9, 28]: > 16 mg/L; MIC [10, 27]: > 16 mg/L; IC50 ([12]; ATCC9533|CCM8377, 48 h, read-out: IC50 (spectrophotometric detection)): 1 mg/L (≈ 2.86 µM); MIC [12, 29]: > 16 mg/L; MIC [15, 27]: > 16 mg/L; IC50 ([20]; CCM8363, 48 h, read-out: IC50 (spectrophotometric detection)): 1 mg/L (≈ 2.86 µM); MIC [20, 30]: > 16 mg/L

— publication PMC9143880, “Improving Antimicrobial Activity and Physico-Chemical Properties by Isosteric Replacement of 2-Aminothiazole with 2-Aminooxazole” (Pharmaceuticals, 2022)
